According to patent US12697317B2 (priority 2019, dated 2026):

Assays:
[1] = Plasma exposure by baseline creatinine clearance group (FIG. 1; Studies 2, 3 and 5)
Procedure: Renal dysfunction is expected to elevate PAGN plasma concentrations. AE data from subjects with severe renal impairment were summarized. […] CLcr of 35 mL/min was chosen as a cut-off value in order to have relatively sufficient sample size for the group with relatively worse renal function.

[2] = Safety/tolerability of LOPA in patients with stable cirrhosis, Study 2; conditions: Study 2, FIG. 3
Procedure: (§1) Pharmacokinetics Analysis
(§2) Adverse events (AEs) were assessed and coded using the Medical Dictionary for Regulatory Activities (MedDRA) preferred term and system organ class.
(§3) The evaluation of potential correlation between central nervous system (CNS) AEs and PAA exposure was conducted on data from Studies 1-3. The first reported drug-related CNS AE was included in the analysis. For each such CNS AE, two PAA concentrations were identified based on the time of onset of the AE and the time of PAA assessment: (1) the closest PAA concentration before the onset of the AE; and (2) the closest PAA concentrations after the onset of the […] All time points were calculated relative to the start of study drug infusion.

[3] = Safety of LOPA in hospitalized patients with cirrhosis, hyperammonemia and acute HE, Study 3; conditions: hospitalized patients with hyperammonemia and an acute episode of HE
Procedure: as §1, §2, §3

clinical = conditions: human, in vivo, iv
Procedure: (§5) Plasma concentrations of ORN, PAA, PAGN, and urine concentrations of PAGN were measured using a validated LC-MS/MS method.
Hepatic dysfunction on PAA PK was investigated using the PK data from patients in Studies 2 and 3. Renal dysfunction on PAA and PAGN plasma exposure was explored using the PK data from Studies 2, 3 and 5.

[4] = Safety/tolerability of LOPA in healthy subjects (SAD/MAD), Study 1; conditions: Study 1, healthy subjects, FIG. 2
Procedure: as §1, §2, §3

[5] = Steady state plasma PAA in hospitalized patients with cirrhosis and HE, Study 3; format: in vivo, human; conditions: for median concentration of PAA at steady state: Study 3, Child-Pugh C patients
Procedure: as §1
(§4) Both non-compartmental analysis and population PK analysis were conducted to identify factors attributing to the PK of PAA, ORN, and PAGN. Ethnicity factor on the PK of PAA was explored using the PK data from Caucasian, Chinese, and Japanese healthy subjects in Studies 1 and 4.

[6] = PK of PAA, ORN and PAGN in severe renal impairment vs normal renal function, Study 5
Procedure: Seven subjects with severe renal impairment and seven age, sex, and weight-matched subjects with normal renal function participated, wherein 5 males and 2 females participated in both groups.
as §5

[7] = Population PK modeling of PAA, Studies 2, 3 and 5; format: in vivo, human
Procedure: as §4
Hepatic impairment also altered PAA plasma exposure. To identify the factors contributing to PAA plasma exposure, population PK modeling was conducted. A one-compartment model with Michaelis-Menten kinetics describing the formation of PAGN from PAA adequately quantified PAA plasma concentration profiles in healthy subjects and patients. Body weight was identified as a significant covariate for the PK of PAA in both healthy subjects and patients. Other factors such as ethnicity and hepatic/renal impairment on the PK of PAA are described below.

[8] = normal renal function, LOPA 15 g/24 hour IV
[9] = severely impaired renal function, LOPA 7 g/24 hours IV

O=C(O)Cc1ccccc1 [PAA, phenylacetic acid]
PAA plasma concentrations, CLcr ≤35 mL/min group vs >35 mL/min group [1]: no difference | PAA concentrations vs CNS AE occurrence [2]: No correlation | PAA exposure related neurotoxicity [3]: No PAA exposure related neurotoxicity | half-life (clinical; 3 g/4 h): 0.65 h | half-life (clinical; 30 g/4 h): 5.99 h | half-life (clinical; 30 g/24 h): 1.25 h | half-life (clinical; 60 g/24 h): 4.09 h | severity of CNS AEs vs PAA plasma concentrations [4]: appeared to be correlated | median concentration of PAA at steady state ([5]; 10 g/24 hr (n=23)): 118 µg/mL | median concentration of PAA at steady state ([5]; 15 g/24 hr (n=38)): 120 µg/mL | plasma PAA concentration at steady state, higher in Child-Pugh C than Child-Pugh B patients ([5]; Study 3, LOPA 15 g/24 h, during infusion period): approximately 35% | PAA PK: increase in Cmax and AUC with dose (IV LOPA from 10 g/4 h or 20 g/24 h up, healthy subjects and subjects with stable cirrhosis): greater than dose-proportional increase | Recovered PAA as unchanged compound in urine (after IV LOPA): < 1 % of the administered dose of PAA | mean dose normalized PAA AUCt [6, 8]: 54.9 µg·h/mL/g | mean dose normalized PAA Cmax [6, 8]: 2.61 µg/mL/g | mean dose normalized PAA AUCt [6, 9]: 45.4 µg·h/mL/g | mean dose normalized PAA Cmax [6, 9]: 1.58 µg/mL/g | impact of renal dysfunction on the exposure of PAA ([7]; mild, moderate or severe renal dysfunction, population PK analysis): insignificant impact | PAA exposure at steady state, Child-Pugh C higher than Child-Pugh B ([7]; population PK model, same body weight): 36%
